Results on three compounds are retold here after patent US20250241890A1, “1,4-DIUREAS AND 1,4-DITHIOUREAS AND USES THEREOF” (Purdue Research Foundation, priority 2024, published 2025).

The test system of the series is M17D-TR/αS-3K::YFP cells. The experiment in a line: α-Syn inclusion-forming neuroblastoma cell experiment (Incucyte). It counts as cell-based. As to conditions: M17D αS-3K::YFP cells; for cell confluence: relative to DMSO vehicle. As to the method: FIG. 11. Compound 1 prevents αS inclusion formation. M17D cells expressing the inclusion-prone αS-3K::YFP fusion protein (dox-inducible) were treated with 0.1% DMSO (vehicle; “0 μM”) as well as 1.25, 2.5, 5 and 10 μM of compounds 1, 2 and 8 at t=24 hours after plating. Cells were induced with doxycycline at t=48 hours. A) Incucyte-based analysis of punctate YFP signals relative to 0.1% DMSO was done at t=96 hours (N=3 independent experiments, n=6-18 individual wells total (0 μM, n=18; 10 μM, n=6; all other concentrations, n=12). B) Same as panel A, but confluence fold changes relative to DMSO vehicle (0 μM) were plotted. C) Representative IncuCyte images of reporter cells treated with vehicle vs. 10 μM compounds 1, 2, or 8 (t=96 h), green channel. Arrows indicate αS-rich YFP-positive inclusions. Scale bar, 50 μm. All data are presented as fold-changes relative to DMSO control +/−standard deviation. One-way ANOVA, Dunnett's post-hoc test; *, p<0.05; **, p<0.01; ***, p<0.001.
Chemical and peptide source. Dimethylsulfoxide (DMSO) and thioflavin-T (ThT) were purchased from Alfa Aesar (Ward Hill, MA). Recombinant α-synuclein (α-syn) was procured from rPeptide (WatKinsville, GA). The recombinant p-tau isoform 1N4R was prepared as published previously (Fortin et al. 2021, Sui et al. 2015, Liu et al. 2020). Concerning the preparation of tau 0N4R, a bacterial expression plasmid consisting of the vector pET30a carrying a cDNA encoding the human Tau 0N4R isoform was a kind gift of Dr. Benjamin Wolozin (Boston University). E. coli stock (Rosetta BL21 E. coli (CamR) containing pET30a [0N4R tau wt] (KanR)) was grown in LB medium supplemented with kanamycin (50 μg/mL) and chloramphenicol (50 μg/mL). Protein over-expression was induced by the addition of 1 mM IPTG for ˜18 hours at 37° C., and cells were pelleted by centrifugation at 6,000 g for 15 minutes at 4° C. The cells were resuspended in lysis buffer (10 mM Hepes, pH 7.4, 50 mM NaCl, 1 mM MgCl2, 1 mM PMSF, 1× PIC, and 0.5 mM DTT) and lysed by sonication at 30 seconds “On” and 1 minute “Off” at ˜30-45% power for ˜3-5 minutes. Lysate was centrifuged at 10,000 rpm for 10 minutes at 4° C., and supernatant was transferred with 7.8 ml (total) of 3M NaCl. The lysate was incubated for 10 minutes in 80° C. water bath, then cooled for 10 minutes in an ice bath. The lysate was centrifuged at 10,000 rpm at 4° C. for 10 minutes, and the supernatant was transferred to a new tube. The supernatant was dialyzed overnight against cation exchange buffer (50 mM MES, […], 1 mM DTT, pH 6.0). The dialysate was loaded onto a HiPrep SP HP column, and proteins were eluted with a linear gradient ranging from 50 mM to 1 M NaCl. General Characterizations. ^1H and ^13C {1H} NMR spectra were recorded using a 500 MHz Bruker instrument working at a frequency of 500 MHz for ^1H and at 126 MHz for ^13C. Chemical shifts are reported in ppm using residual solvent resonances as internal reference (δ 2.50 and δ 39.51 for ^1H and ^13C in DMSO-d6, respectively). ^1H NMR data are reported as follows. b=broad, s=singlet, d=doublet, t=triplet, q=quartet, and m=multiplet. Coupling constants are given in hertz. The purity of all compounds and synthetic intermediates was judged to be 95% or better based on ^1H NMR. […] Thioflavin fluorescence assays. Thioflavin fluorescence assays were used to monitor fibril formation of commercial recombinant α-syn at a final concentration of 2 μM and treated with control DMSO and different compounds. […]

`S=C(Nc1ccc(NC(=S)Nc2cccc3cc[nH]c23)cc1)Nc1cccc2cc[nH]c12` [Compound 8, 3-(1H-indol-7-yl)-1-(4-{[(1H-indol-7-yl)carbamothioyl]amino}phenyl)thiourea]: the cell confluence result (1.25 to 10 μM) is “did not exhibit changes in the cell confluence”. Besides, under “1.25 to 10 μM, t=96 hours”, the “numbers of α-syn inclusions” value is “very minimal changes in the numbers of inclusions”.

As for `O=C(Nc1ccc(NC(=O)Nc2cccc3[nH]ccc23)cc1)Nc1cccc2[nH]ccc12` [Compound 1, 3-(1H-indol-4-yl)-1-(4-{[(1H-indol-4-yl)carbamoyl]amino}phenyl)urea], where the note is “1.25 to 10 μM”, the cell confluence entry is “did not exhibit changes in the cell confluence”. For the compound `S=C(Nc1ccc(NC(=S)Nc2cccc3[nH]ccc23)cc1)Nc1cccc2[nH]ccc12` [Compound 2, 3-(1H-indol-4-yl)-1-(4-{[(1H-indol-4-yl)carbamothioyl]amino}phenyl)thiourea], the cell confluence entry (1.25 to 10 μM) is “did not exhibit changes in the cell confluence”. Also, where the note is “5 and 10 μM, t=96 hours”, the “α-syn inclusion formation (punctate YFP signals relative to DMSO)” value was “increased the inclusions”.
